Data taken from patent publication US6643591B1, “Use of computational and experimental data to model organic compound reactivity in cytochrome P450 mediated reactions and to optimize the design of pharmaceuticals” (University of Pittsburgh, priority 1998, dated 2003).
“And” between values parts separate entries of the source, which are not always exact repeats. Equal values may be shown once. Read-outs that look alike come from different tables or passages of the source. Marks after values point to notes of the source that are not given here.

Columns and labels:
CYP = assay: Activation energy differences from experimental regioselectivity of substrates in rapid equilibrium; format: in vitro ADME; parameters: unit not given here; conditions: difference in activation energy calculated by the experimental regioselectivity
Source text: Five substrates shown to undergo rapid equilibrium between positions of metabolism have been used to prepare data for regression and then correlation with Eq. 1. The differences in activation energy calculated by the experimental regioselectivity of the substrates, along with the differences in AM1 activation enthalpies, are given in Table 1. Regression of the experimental data gives a slope correction for AM1 activation energies of 0.75±0.20.

CYP1A2 = molecular target: T1, CYP1A2 (Homo sapiens, UniProt P05177); conditions: pH 7.4
T1 sequence (P05177 1-516): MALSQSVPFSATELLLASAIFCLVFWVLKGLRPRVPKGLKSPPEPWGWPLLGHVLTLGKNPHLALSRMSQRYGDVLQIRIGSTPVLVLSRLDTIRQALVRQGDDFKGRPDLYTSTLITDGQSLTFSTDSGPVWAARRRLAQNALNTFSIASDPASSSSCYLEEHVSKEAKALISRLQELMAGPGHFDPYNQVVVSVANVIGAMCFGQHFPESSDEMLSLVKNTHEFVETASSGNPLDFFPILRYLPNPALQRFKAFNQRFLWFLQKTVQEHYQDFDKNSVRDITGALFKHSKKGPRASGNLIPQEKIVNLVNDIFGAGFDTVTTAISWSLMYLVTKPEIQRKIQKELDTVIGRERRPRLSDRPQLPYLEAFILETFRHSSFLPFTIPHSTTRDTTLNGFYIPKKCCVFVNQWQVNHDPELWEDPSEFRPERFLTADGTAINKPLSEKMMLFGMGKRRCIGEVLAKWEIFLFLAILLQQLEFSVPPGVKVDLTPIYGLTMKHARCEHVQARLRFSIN

CYP2B1 = molecular target: T2, CYP2B1 (Rattus norvegicus, UniProt P00176)
T2 sequence (P00176 1-491): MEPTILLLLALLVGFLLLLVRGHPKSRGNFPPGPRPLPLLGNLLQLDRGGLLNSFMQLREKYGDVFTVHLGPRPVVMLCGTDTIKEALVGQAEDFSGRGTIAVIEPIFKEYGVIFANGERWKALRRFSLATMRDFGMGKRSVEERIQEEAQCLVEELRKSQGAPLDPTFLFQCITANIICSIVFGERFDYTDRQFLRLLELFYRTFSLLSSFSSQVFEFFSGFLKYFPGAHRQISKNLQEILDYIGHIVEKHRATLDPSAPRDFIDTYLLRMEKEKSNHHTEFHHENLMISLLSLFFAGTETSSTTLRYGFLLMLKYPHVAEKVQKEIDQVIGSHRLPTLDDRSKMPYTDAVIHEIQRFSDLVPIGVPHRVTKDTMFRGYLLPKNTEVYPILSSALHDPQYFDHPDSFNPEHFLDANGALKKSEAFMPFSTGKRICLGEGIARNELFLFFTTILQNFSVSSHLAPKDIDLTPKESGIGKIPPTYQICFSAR

CYP2C8 = molecular target: T3, CYP2C8 (Homo sapiens, UniProt P10632); conditions: pH 7.4
T3 sequence (P10632 1-490): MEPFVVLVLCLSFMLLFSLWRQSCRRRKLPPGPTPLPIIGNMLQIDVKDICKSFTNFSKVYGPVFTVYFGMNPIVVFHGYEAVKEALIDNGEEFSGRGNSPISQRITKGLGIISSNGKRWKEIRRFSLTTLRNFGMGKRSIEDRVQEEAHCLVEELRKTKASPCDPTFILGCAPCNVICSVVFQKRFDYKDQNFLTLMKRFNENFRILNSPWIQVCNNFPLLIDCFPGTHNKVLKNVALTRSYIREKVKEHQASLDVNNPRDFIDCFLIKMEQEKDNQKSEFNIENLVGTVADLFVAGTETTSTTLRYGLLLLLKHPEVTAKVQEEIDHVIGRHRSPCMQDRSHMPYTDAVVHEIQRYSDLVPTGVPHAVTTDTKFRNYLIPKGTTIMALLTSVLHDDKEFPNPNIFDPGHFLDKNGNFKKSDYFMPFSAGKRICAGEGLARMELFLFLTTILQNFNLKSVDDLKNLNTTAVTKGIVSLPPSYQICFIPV

CYP2C9 = CYP2C9 (Homo sapiens, UniProt P11712); conditions: human, pH 7.4
CYP2E1 = CYP2E1 (Homo sapiens, UniProt P05181); conditions: pH 7.4
CYP4B1 = CYP4B1 (Oryctolagus cuniculus, UniProt P15128)
multiple CYP isoforms = conditions: for P, calculated primary KIE, average / S, calculated secondary KIE, average: Avg over isoforms with unmasked KIE; for INTER KIE, average: Avg over isoforms with unmasked KIE (p-MA: 1A2, 2B1, 2B6, 2E1; o-MA: six isoforms; α-ClMpX: 1A2, 2B1, 2B6); for Intramolecular KIE, average: Avg over the CYP isoforms tested; for Intramolecular KIE, range of values: range over the CYP isoforms tested

Chain of CYP4B1 (P15128 whole entry, canonical isoform): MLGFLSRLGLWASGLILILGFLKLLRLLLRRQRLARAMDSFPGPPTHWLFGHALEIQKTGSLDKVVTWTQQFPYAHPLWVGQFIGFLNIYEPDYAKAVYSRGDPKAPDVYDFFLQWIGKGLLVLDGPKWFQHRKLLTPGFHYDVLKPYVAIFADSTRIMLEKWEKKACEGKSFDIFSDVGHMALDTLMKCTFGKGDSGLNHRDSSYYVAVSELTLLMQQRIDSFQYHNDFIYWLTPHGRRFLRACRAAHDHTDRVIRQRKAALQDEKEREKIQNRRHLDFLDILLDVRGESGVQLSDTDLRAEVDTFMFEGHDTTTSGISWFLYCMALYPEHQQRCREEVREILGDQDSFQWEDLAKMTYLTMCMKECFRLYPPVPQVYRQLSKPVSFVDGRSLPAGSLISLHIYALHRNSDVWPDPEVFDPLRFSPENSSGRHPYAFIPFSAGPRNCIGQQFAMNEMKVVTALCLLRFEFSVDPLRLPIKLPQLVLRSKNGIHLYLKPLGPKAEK
Chain of CYP2E1 (P05181 whole entry): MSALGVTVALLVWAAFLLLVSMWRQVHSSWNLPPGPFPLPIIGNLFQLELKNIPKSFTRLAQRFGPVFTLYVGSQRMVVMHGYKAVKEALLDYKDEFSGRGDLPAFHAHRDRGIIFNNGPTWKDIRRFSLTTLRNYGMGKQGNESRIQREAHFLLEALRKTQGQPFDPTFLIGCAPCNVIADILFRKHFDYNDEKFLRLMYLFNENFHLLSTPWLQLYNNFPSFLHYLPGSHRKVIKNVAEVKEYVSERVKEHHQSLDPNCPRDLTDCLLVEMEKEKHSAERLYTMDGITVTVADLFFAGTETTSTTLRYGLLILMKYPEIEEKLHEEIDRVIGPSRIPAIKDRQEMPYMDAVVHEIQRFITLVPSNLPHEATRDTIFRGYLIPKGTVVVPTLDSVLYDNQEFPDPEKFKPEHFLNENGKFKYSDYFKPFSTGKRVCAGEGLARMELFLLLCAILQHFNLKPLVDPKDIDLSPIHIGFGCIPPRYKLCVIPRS
Chain of CYP2C9 (P11712 whole entry): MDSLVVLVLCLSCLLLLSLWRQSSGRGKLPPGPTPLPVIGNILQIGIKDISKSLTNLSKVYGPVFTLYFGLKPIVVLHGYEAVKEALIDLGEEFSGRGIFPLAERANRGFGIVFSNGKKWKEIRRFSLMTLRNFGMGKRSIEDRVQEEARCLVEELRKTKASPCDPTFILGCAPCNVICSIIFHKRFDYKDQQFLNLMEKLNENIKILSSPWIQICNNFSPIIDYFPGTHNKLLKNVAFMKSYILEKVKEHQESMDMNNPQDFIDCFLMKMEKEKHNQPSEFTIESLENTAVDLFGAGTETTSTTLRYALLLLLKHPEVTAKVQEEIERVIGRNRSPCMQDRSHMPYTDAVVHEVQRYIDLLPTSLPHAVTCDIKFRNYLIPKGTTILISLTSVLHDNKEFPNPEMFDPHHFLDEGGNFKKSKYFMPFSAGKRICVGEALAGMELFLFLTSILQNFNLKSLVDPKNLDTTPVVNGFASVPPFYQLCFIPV

COc1ccccc1C [o-Methylanisole, o-methylanisole]
ΔΔG (experimental) (CYP): 0.3
INTER KIE (combined intermolecular competitive KIE) (CYP1A2): 9.15
Intramolecular KIE (kH/kD) (CYP1A2): 5.7
Metabolite profile, Phenol (CYP1A2): 54 Mol-%
Metabolite profile, o-CR (CYP1A2): 12 Mol-%
Metabolite profile, o-MBA (CYP1A2): 34 Mol-%
P, calculated primary KIE (CYP1A2): 6.7
Ratio of ring hydroxylation para to the methoxy group to ODAlk (CYP1A2): 4.5
S, calculated secondary KIE (CYP1A2): 1.17
nmol 4M3MPh (CYP1A2): 9.7* nmol
nmol TP (CYP1A2): 18.0 nmol
nmol o-CR (CYP1A2): 2.2* nmol
nmol o-MBA (CYP1A2): 6.1* nmol
INTER KIE (combined intermolecular competitive KIE) (CYP2B1): 9.3
Intramolecular KIE (kH/kD) (CYP2B1): 5.78
P, calculated primary KIE (CYP2B1): 6.8
S, calculated secondary KIE (CYP2B1): 1.2
Metabolite profile, Phenol (CYP2B1; rat, pH 7.4): 63 Mol-%
Metabolite profile, o-CR (CYP2B1; rat, pH 7.4): 18 Mol-%
Metabolite profile, o-MBA (CYP2B1; rat, pH 7.4): 19 Mol-%
Ratio of ring hydroxylation para to the methoxy group to ODAlk (CYP2B1; rat, pH 7.4): 3.5
nmol 4M3MPh (CYP2B1; rat, pH 7.4): 9.1* nmol
nmol TP (CYP2B1; rat, pH 7.4): 13* nmol
nmol o-CR (CYP2B1; rat, pH 7.4): 2.3* nmol
nmol o-MBA (CYP2B1; rat, pH 7.4): 2.37* nmol
Metabolite profile, Phenol (CYP2C8): 33 Mol-%
Metabolite profile, o-CR (CYP2C8): 36 Mol-%
Metabolite profile, o-MBA (CYP2C8): 31 Mol-%
nmol 4M3MPh (CYP2C8): 0.2 nmol
nmol TP (CYP2C8): 0.6 nmol
nmol o-CR (CYP2C8): 0.2 nmol
nmol o-MBA (CYP2C8): 0.21 nmol
INTER KIE (combined intermolecular competitive KIE) (CYP2C9): 12
Intramolecular KIE (kH/kD) (CYP2C9): 6.3
Metabolite profile, Phenol (CYP2C9): 32 Mol-%
Metabolite profile, o-CR (CYP2C9): 22 Mol-%
Metabolite profile, o-MBA (CYP2C9): 46 Mol-%
P, calculated primary KIE (CYP2C9): 8
Ratio of ring hydroxylation para to the methoxy group to ODAlk (CYP2C9): 1.5
S, calculated secondary KIE (CYP2C9): 1.2
nmol TP (CYP2C9): 6.9* nmol
nmol o-CR (CYP2C9): 1.5* nmol
nmol o-MBA (CYP2C9): 3.1* nmol
INTER KIE (combined intermolecular competitive KIE) (CYP2E1): 10
Intramolecular KIE (kH/kD) (CYP2E1): 5.95
Metabolite profile, Phenol (CYP2E1): 57 Mol-%
Metabolite profile, o-CR (CYP2E1): 16 Mol-%
Metabolite profile, o-MBA (CYP2E1): 27 Mol-%
P, calculated primary KIE (CYP2E1): 7.1
Ratio of ring hydroxylation para to the methoxy group to ODAlk (CYP2E1): 3.5
S, calculated secondary KIE (CYP2E1): 1.19
nmol 4M3MPh (CYP2E1): 13* nmol
nmol TP (CYP2E1): 23* nmol
nmol o-CR (CYP2E1): 3.8* nmol
nmol o-MBA (CYP2E1): 6.1* nmol
INTER KIE (combined intermolecular competitive KIE) (CYP4B1): 14.94
Intramolecular KIE (kH/kD) (CYP4B1): 6.90
P, calculated primary KIE (CYP4B1): 8.9
S, calculated secondary KIE (CYP4B1): 1.29
Metabolite profile, o-CR (CYP4B1; pH 7.4): 59 Mol-%
Metabolite profile, o-MBA (CYP4B1; pH 7.4): 39 Mol-%
Ratio ODAlk:Arom (CYP4B1; pH 7.4): 0.03
nmol 4M3MPh (CYP4B1; pH 7.4): 1.1* nmol
nmol TP (CYP4B1; pH 7.4): 48 nmol
nmol o-CR (CYP4B1; pH 7.4): 29* nmol
nmol o-MBA (CYP4B1; pH 7.4): 18.7* nmol
ΔΔG^‡ corresponding to regioselectivity BzH:ODAlk (multiple CYP isoforms): 0.1-0.65
Ring hydroxylation products, share of total products (multiple CYP isoforms; 20 min, […], pH 7.4): 30-60%
P, calculated primary KIE, average (multiple CYP isoforms): 8
S, calculated secondary KIE, average (multiple CYP isoforms): 1.2
INTER KIE, average (multiple CYP isoforms): 11
INTER KIE, average (multiple CYP isoforms; listed as o-MA): 11±3
P, calculated primary KIE, average (multiple CYP isoforms; listed as o-MA): 8±3
S, calculated secondary KIE, average (multiple CYP isoforms; listed as o-MA): 1.2±0.4
Intramolecular KIE, average (multiple CYP isoforms): 6.2
Intramolecular KIE, average (multiple CYP isoforms; listed as o-MA): 6.2±0.6
Intramolecular KIE, range of values (multiple CYP isoforms): 5.7-6.9
P (primary KIE), range (multiple CYP isoforms; range over the isoforms): 6.7-8.9
S (secondary KIE), range (multiple CYP isoforms; range over the isoforms): 1.15-1.29
Regioselectivity BzH:ODAlk, range (multiple CYP isoforms; range over the isoforms, listed as o-MA): 1.2-2.9

COc1ccc(C)cc1 [p-Methylanisole, p-methylanisole]
ΔΔG (experimental) (CYP): 1.1
INTER KIE (combined intermolecular competitive KIE) (CYP1A2): 5.9
P, calculated primary KIE (CYP1A2): 5.0
S, calculated secondary KIE (CYP1A2): 1.08
INTER KIE (combined intermolecular competitive KIE) (CYP2B1): 5.8
Intramolecular KIE (kH/kD) (CYP2B1): 3.69
P, calculated primary KIE (CYP2B1): 4.3
S, calculated secondary KIE (CYP2B1): 1.16
nmol p-CR (CYP2B1; rat, pH 7.4): 2.0* nmol
nmol p-MBA (CYP2B1; rat, pH 7.4): 4.2* nmol
nmol total TP (CYP2B1; rat, pH 7.4): 6.2* nmol
nmol p-CR (CYP2C8): 0.20 nmol
nmol p-MBA (CYP2C8): 1.89 nmol
nmol total TP (CYP2C8): 2.08 nmol
INTER KIE (combined intermolecular competitive KIE) (CYP2C9): 2.6
INTER KIE (combined intermolecular competitive KIE) (CYP2E1): 6.6
Intermolecular Competitive ^D(V/K) (CYP2E1): 2.57 ± 0.02
Intermolecular Noncompetitive ^D(V/K) (CYP2E1): 2.60 ± 0.01
Intermolecular Noncompetitive ^DV (CYP2E1): 2.28 ± 0.10
P, calculated primary KIE (CYP2E1): 4.9
S, calculated secondary KIE (CYP2E1): 1.16
nmol p-CR (CYP2E1): 5.6* nmol
nmol p-MBA (CYP2E1): 23.8* nmol
nmol total TP (CYP2E1): 29.4 nmol
INTER KIE (combined intermolecular competitive KIE) (CYP4B1): 1.4 and 1.42
Intramolecular KIE (kH/kD) (CYP4B1): 6.08
nmol p-CR (CYP4B1; pH 7.4): 48* nmol
nmol p-MBA (CYP4B1; pH 7.4): 63* nmol
nmol total TP (CYP4B1; pH 7.4): 111* nmol
P, calculated primary KIE, average (multiple CYP isoforms): 5
S, calculated secondary KIE, average (multiple CYP isoforms): 1.2
INTER KIE, average (multiple CYP isoforms): 6
INTER KIE, average (multiple CYP isoforms; listed as p-MA): 6±1
P, calculated primary KIE, average (multiple CYP isoforms; listed as p-MA): 5±1
S, calculated secondary KIE, average (multiple CYP isoforms; listed as p-MA): 1.15±0.22
Intramolecular KIE, average (multiple CYP isoforms): 4.4
Intramolecular KIE, average (multiple CYP isoforms; listed as p-MA): 4.4±0.3
Intramolecular KIE, range of values (multiple CYP isoforms): 3.69-6.08
Combined intermolecular competitive KIE, range (multiple CYP isoforms; range over the isoforms): 5.9-6.8
P (primary KIE), range (multiple CYP isoforms; range over the isoforms): 4.3-5.0
S (secondary KIE), range (multiple CYP isoforms; range over the isoforms): 1.08-1.22
